This is an account of results in patent publication US20110301142A1, “ANTAGONISTS OF LYSOPHOSPHATIDIC ACID RECEPTORS” (priority 2008, published 2011).

The target in one test is T1, human LPA3 (Homo sapiens, UniProt Q9UBY5).
T1 construct: The full-length cDNA fragment for human LPA3 was obtained by PCR from the vector; expressed in transfected cells; cDNA from the Missouri S&T cDNA Resource Center
T1 sequence (Q9UBY5 1-353): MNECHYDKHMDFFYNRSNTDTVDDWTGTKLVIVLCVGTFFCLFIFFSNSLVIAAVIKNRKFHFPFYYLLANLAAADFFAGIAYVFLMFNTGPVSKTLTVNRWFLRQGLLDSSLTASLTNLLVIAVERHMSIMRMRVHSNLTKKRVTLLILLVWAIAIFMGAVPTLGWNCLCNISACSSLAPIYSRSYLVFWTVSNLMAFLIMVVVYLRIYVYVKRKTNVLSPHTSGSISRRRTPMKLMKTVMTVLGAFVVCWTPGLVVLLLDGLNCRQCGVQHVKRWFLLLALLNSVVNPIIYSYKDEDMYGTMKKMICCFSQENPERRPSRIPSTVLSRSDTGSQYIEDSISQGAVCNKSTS
The test can be described thus: LPA3 calcium flux assay. It is filed as cell-based. The following applies: Human LPA3 expressing CHO cells, stimulated with 10 nM LPA; read-out: HLPA3 Ca Flux IC50. How it is done: A vector containing the human LPA3 receptor cDNA was obtained from the Missouri S&T cDNA Resource Center (www.cdna.org). The full-length cDNA fragment for human LPA3 was obtained by PCR from the vector. The nucleotide sequence of the cloned human LPA3 was determined by sequencing and confirmed to be identical to the published human LPA3 sequence (NCBI accession number NM 012152). The cDNA was cloned into the pcDNA5/FRT expression plasmid and transfected in CHO cells using lipofectamine 2000 (Invitrogen Corp., USA). Clones stably expressing human LPA3 were selected using hygromycin and identified as cells that show Ca-influx in response to LPA.
Human LPA1 or LPA3 expressing CHO cells are seeded at 20,000-45,000 cells per well in a 96-well poly-D-lysine coated plate one or two days before the assay. Prior to the assay, the cells are washed once with PBS and then cultured in serum-free media overnight. On the day of the assay, a calcium indicator dye (Calcium 4, Molecular Devices) in assay buffer (HBSS with Ca^2+ and Mg^2+ and containing 20 mM Hepes and 0.3% fatty-acid free human serum albumin) is added to each well and incubation continued for 1 hour at 37° C. 10 μl of test compounds in 2.5% DMSO are added to the cells and incubation continued at room temperature for 30 minutes. Cells are the stimulated by the addition of 10 nM LPA and intracellular Ca^2+ measured using the Flexstation 3 (Molecular Devices). IC50s are determined using Graphpad prism analysis of drug titration curves.
(Calcium assays in cells follow changes in intracellular calcium, usually with a dye or a luminescent sensor.)

The next test deals with T2, human LPA1 (Homo sapiens, UniProt Q92633).
T2 construct: the full-length cDNA for human LPA1 was obtained by PCR of the reverse transcription reaction; expressed in transfected cells
T2 sequence (Q92633 whole entry): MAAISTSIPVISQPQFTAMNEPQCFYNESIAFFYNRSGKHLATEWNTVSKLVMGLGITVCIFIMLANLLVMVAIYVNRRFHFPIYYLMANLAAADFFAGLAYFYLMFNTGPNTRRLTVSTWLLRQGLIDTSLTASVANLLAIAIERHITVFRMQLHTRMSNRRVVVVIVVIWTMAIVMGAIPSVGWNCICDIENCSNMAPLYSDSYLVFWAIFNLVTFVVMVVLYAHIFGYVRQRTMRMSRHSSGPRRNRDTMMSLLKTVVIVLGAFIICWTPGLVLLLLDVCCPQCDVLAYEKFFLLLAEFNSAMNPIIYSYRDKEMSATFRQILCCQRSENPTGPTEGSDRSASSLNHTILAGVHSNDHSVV
In words: LPA1 calcium flux assay (HLPA1 Ca Flux). It is filed as cell-based. The settings on record: Human LPA1 expressing CHO cells, stimulated with 10 nM LPA. The gist of the method:
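Compounds were fitted for IC50 from inhibition of the intracellular calcium rise evoked by 10 nM LPA. Test system: dye-loaded CHO cells stably transfected with human LPA1, serum-free overnight, with 30 min compound pretreatment at room temperature before stimulation.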

Usually IC50 stands for the midpoint of a concentration-inhibition curve. For `Cc1noc(-c2cccc(-c3cccc(C(=O)O)c3)c2)c1NC(=O)OC(C)c1ccccc1Cl` (stereo not drawn) [Compound 1-31, 3′-{4-[1-(2-Chloro-phenyl)-ethoxycarbonylamino]-3-methyl-isoxazol-5-yl}-biphenyl-3-carboxylic acid], the IC50 at human LPA3 and on human LPA1 was 1 to 50 µM throughout.
For the molecule `Cc1noc(-c2cccc(C3=CCC(C(=O)O)CC3)c2)c1NC(=O)OC(C)c1ccccc1Cl` (stereo not drawn) [Compound 1-45, 4-(3-{4-[1-(2-Chloro-phenyl)-ethoxycarbonylamino]-3-methyl-isoxazol-5-yl}-phenyl)-cyclohex-3-enecarboxylic acid], the values for the half-maximal inhibitory concentration (IC50) at human LPA3 and on human LPA1 were above 50 µM and below 0.3 µM, respectively.
As to `Cc1noc(-c2ccc(-c3ccc(CC(=O)O)cc3)nc2)c1NC(=O)OC(C)c1ccccc1F` (stereo not drawn) [Compound 1-48], the IC50 at human LPA3 is above 50 µM; on human LPA1 it was below 0.3 µM.
For the molecule `COc1ccc(CC(=O)O)cc1-c1ccc(-c2onc(C)c2NC(=O)OC(C)c2ccccc2Cl)cc1` (stereo not drawn) [Compound 1-49, (4′-{4-[1-(2-Chloro-phenyl)-ethoxycarbonylamino]-3-methyl-isoxazol-5-yl}-6-methoxy-biphenyl-3-yl)-acetic acid], the IC50 on human LPA3 lay within 1 to 50 µM; on human LPA1, 0.3 to 1 µM.
On to `Cc1noc(-c2ccc(-c3cc(C(=O)O)ccn3)cc2)c1NC(=O)OC(C)c1ccccc1Cl` (stereo not drawn) [Compound 1-50, 2-(4-{4-[1-(2-Chloro-phenyl)-ethoxycarbonylamino]-3-methyl-isoxazol-5-yl}-phenyl)-isonicotinic acid], for which the IC50 at human LPA3 is 1 to 50 µM; on human LPA1, below 0.3 µM.
For the molecule `Cc1noc(-c2ccc(-c3ccc(C(=O)O)cc3)cc2)c1NC(=O)OC(C)c1ccccc1Cl` (stereo not drawn) [Compound 1-51, 4′-{4-[1-(2-Chloro-phenyl)-ethoxycarbonylamino]-3-methyl-isoxazol-5-yl}-biphenyl-4-carboxylic acid], the IC50 on human LPA3 is 1 to 50 µM; on human LPA1 it was below 0.3 µM.
For `Cc1noc(-c2ccc(-c3cccc(C(=O)O)n3)cc2)c1NC(=O)OC(C)c1ccccc1Cl` (stereo not drawn) [Compound 1-53, 6-(4-{4-[1-(2-Chloro-phenyl)-ethoxycarbonylamino]-3-methyl-isoxazol-5-yl}-phenyl)-pyridine-2-carboxylic acid], the 50% inhibitory concentration (IC50) at human LPA3 is 1 to 50 µM; on human LPA1 it was below 0.3 µM.
In the case of `Cc1noc(-c2ccc(-c3ccc(C(=O)O)cn3)cc2)c1NC(=O)OC(C)c1ccccc1Cl` (stereo not drawn) [Compound 1-54, 6-(4-{4-[1-(2-Chloro-phenyl)-ethoxycarbonylamino]-3-methyl-isoxazol-5-yl}-phenyl)-nicotinic acid], the concentration for half-maximal inhibition (IC50) was 1 to 50 µM at human LPA3 and below 0.3 µM at human LPA1.
For `Cc1noc(-c2ccc(-c3ccc(C(=O)O)nc3)cc2)c1NC(=O)OC(C)c1ccccc1Cl` (stereo not drawn) [Compound 1-56, 5-(4-{4-[1-(2-Chloro-phenyl)-ethoxycarbonylamino]-3-methyl-isoxazol-5-yl}-phenyl)-pyridine-2-carboxylic acid], in that order: 1 to 50 µM and below 0.3 µM.
Take `Cc1noc(-c2ccc(-c3ccccc3CC(=O)O)cc2)c1NC(=O)OC(C)c1ccccc1Cl` (stereo not drawn) [Compound 1-57, (4′-{4-[1-(2-Chloro-phenyl)-ethoxycarbonylamino]-3-methyl-isoxazol-5-yl}-biphenyl-2-yl)-acetic acid]: the IC50 on human LPA3 is 1 to 50 µM; on human LPA1 it was below 0.3 µM.
Take `Cc1noc(-c2ccc(-c3ccc(CC(=O)O)cc3)cc2)c1NC(=O)OC(C)c1ccccc1Cl` (stereo not drawn) [Compound 1-58, (4′-{4-[1-(2-Chloro-phenyl)-ethoxycarbonylamino]-3-methyl-isoxazol-5-yl}-biphenyl-4-yl)-acetic acid]: the 50% inhibitory concentration (IC50) on human LPA3 is 1 to 50 µM; on human LPA1, below 0.3 µM.
The matching figures for `Cc1noc(-c2ccc(-c3cccc(CC(=O)O)c3)cc2)c1NC(=O)OC(C)c1ccccc1Cl` (stereo not drawn) [Compound 1-59, (4′-{4-[1-(2-Chloro-phenyl)-ethoxycarbonylamino]-3-methyl-isoxazol-5-yl}-biphenyl-3-yl)-acetic acid]: 1 to 50 µM and below 0.3 µM.
